Data taken from USRE47689E1, “Compounds for treating spinal muscular atrophy” (PTC Therapeutics, Inc., priority 2011, dated 2019).
Read-outs that look alike come from different tables or passages of the source.

Key:
[1] = system: SMN2 minigene (full length SMN2 minigene mRNA containing SMN2 exon 7); experiment: SMN2 minigene mRNA splicing RT-qPCR assay in cultured cells; format: cell-based, human; settings: Homo sapiens, HEK293-H, read-out: EC1.5x for production of full length SMN2 mRNA
How it was run: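 HEK293H cells stably carrying the SMN2-A minigene treated 24 h at 37° C with compound (DMSO, 200× stock), then lysed. Multiplex RT-qPCR (SMN primers 0.4 μM final; 40 cycles) measures full-length exon 7-containing minigene mRNA, normalized to GAPDH and to vehicle; EC1.5x derived and binned by stars.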

[2] = system: Smn protein; experiment: Smn protein assay in cultured cells (SMN HTRF); format: cell-based, human; settings: 48 hours; for maximum fold (Fold) increase of Smn protein: SMA patient fibroblast cells, 7-point concentration data, fold increase relative to vehicle control (SMN HTRF); for EC1.5x (concentration giving 1.5-fold Smn protein increase): SMA Type 1 patient fibroblast cells (GM03813), 7-point concentration curve, SMN HTRF, concentration producing 1.5 times Smn protein vs DMSO vehicle control, read-out: EC1.5x for Smn protein expression
How it was run: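 Lysates in RIPA with protease inhibitors are incubated overnight at room temperature with HTRF anti-SMN antibodies. EC1.5x is derived from fold increase in ΔF over vehicle.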

[3] = HEK293H cells stably transfected with SMN2-A minigene, 24 hours, 7-point concentration curve, 1.5-fold relative to vehicle-treated cells

SMILES | EC (1.5-fold) [1, 3] | maximum fold (Fold) increase of Smn protein [2] | melting point | EC1.5x (concentration giving 1.5-fold Smn protein increase) [2] | EC (1.5-fold) ([1]; 24 h)
CN1CCN(c2ccc3cc(-c4cn5cccc(C(F)(F)F)c5n4)c(=O)oc3c2)CC1 [Compound 210, 7-(4-methylpiperazin-1-yl)-3-[8-(trifluoromethyl)imidazo[1,2-a]pyridin-2-yl]-2H-chromen-2-one] | 0.3 to 1 µM | * (maximum fold increase of ≤1.2) | 235 to 237 °C | – | –
C[C@@H]1CN(c2ccc3cc(-c4cn5cccc(C(F)(F)F)c5n4)c(=O)oc3c2)C[C@H](C)N1 [Compound 211, 7-[(3R,5S)-3,5-dimethylpiperazin-1-yl]-3-[8-(trifluoromethyl)imidazo[1,2-a]pyridin-2-yl]-2H-chromen-2-one] | 0.3 to 1 µM | * (maximum fold increase of ≤1.2) | 295 to 298 °C | – | –
O=c1oc2cc(N3CCCNCC3)ccc2cc1-c1cn2cccc(Cl)c2n1 [Compound 212, 3-(8-chloroimidazo[1,2-a]pyridin-2-yl)-7-(1,4-diazepan-1-yl)-2H-chromen-2-one] | 0.3 to 1 µM | **** (fold increase between >1.5 and ≤1.65) | 170 to 173 °C | 300 to 1000 nM | –
Cc1ccn2cc(-c3cc4ccc(N5CCN[C@@H](C)C5)cc4oc3=O)nc2c1 [Compound 213, 3-(7-methylimidazo[1,2-a]pyridin-2-yl)-7-[(3S)-3-methylpiperazin-1-yl]-2H-chromen-2-one] | 0.1 to 0.3 µM | *** (fold increase between >1.35 and ≤1.5) | 234 to 244 °C | – | –
Cc1ccn2cc(-c3cc4ccc(N5CCN[C@H](C)C5)cc4oc3=O)nc2c1 [Compound 214, 3-(7-methylimidazo[1,2-a]pyridin-2-yl)-7-[(3R)-3-methylpiperazin-1-yl]-2H-chromen-2-one] | 0.3 to 1 µM | ** (fold increase between >1.2 and ≤1.35) | 222 °C | – | –
Cc1ccn2cc(-c3cc4ccc(N5CCNC(C)(C)C5)cc4oc3=O)nc2c1 [Compound 215, 7-(3,3-dimethylpiperazin-1-yl)-3-(7-methylimidazo[1,2-a]pyridin-2-yl)-2H-chromen-2-one] | 1 to 3 µM | * (maximum fold increase of ≤1.2) | 217 to 223 °C | – | –
Cc1ccn2cc(-c3cc4ccc(N5CCCNCC5)cc4oc3=O)nc2c1 [Compound 216, 7-(1,4-diazepan-1-yl)-3-(7-methylimidazo[1,2-a]pyridin-2-yl)-2H-chromen-2-one] | 0.3 to 1 µM | *** (fold increase between >1.35 and ≤1.5) | 236 °C | – | –
Cc1ccn2cc(-c3cc4ccc(N5CCCN(C)CC5)cc4oc3=O)nc2c1 [Compound 217, 7-(4-methyl-1,4-diazepan-1-yl)-3-(7-methylimidazo[1,2-a]pyridin-2-yl)-2H-chromen-2-one] | 0.3 to 1 µM | *** (fold increase between >1.35 and ≤1.5) | 200 to 206 °C | – | –
Cc1ccc2nc(-c3cc4ccc(N5CCC(N)CC5)cc4oc3=O)cn2c1 [Compound 219, 7-(4-aminopiperidin-1-yl)-3-(6-methylimidazo[1,2-a]pyridin-2-yl)-2H-chromen-2-one] | 3 to 30 µM | * (maximum fold increase of ≤1.2) | 250 to 252 °C | – | –
Cc1ccc2nc(-c3cc4ccc(N5CCN[C@H](C)C5)cc4oc3=O)cn2c1 [Compound 220, 3-(6-methylimidazo[1,2-a]pyridin-2-yl)-7-[(3R)-3-methylpiperazin-1-yl]-2H-chromen-2-one] | 0.1 to 0.3 µM | ** (fold increase between >1.2 and ≤1.35) | 185 to 188 °C | – | –
Cc1ccc2nc(-c3cc4ccc(N(C)Cc5cccnc5)cc4oc3=O)cn2c1 [Compound 221, 3-(6-methylimidazo[1,2-a]pyridin-2-yl)-7-[methyl(pyridin-3-ylmethyl)amino]-2H-chromen-2-one] | 1 to 3 µM | * (maximum fold increase of ≤1.2) | 220 to 223 °C | – | –
Cc1ccc2nc(-c3cc4ccc(N5CCNC(C)(C)C5)cc4oc3=O)cn2c1 [Compound 222, 7-(3,3-dimethylpiperazin-1-yl)-3-(6-methylimidazo[1,2-a]pyridin-2-yl)-2H-chromen-2-one] | 1 to 3 µM | * (maximum fold increase of ≤1.2) | 177 to 180 °C | – | –
Cc1ccn2cc(-c3cc4ccc(N5CCNCC5)cc4oc3=O)nc2n1 [Compound 223, 3-(7-methylimidazo[1,2-a]pyrimidin-2-yl)-7-(piperazin-1-yl)-2H-chromen-2-one] | 0.3 to 1 µM | * (maximum fold increase of ≤1.2) | 295 to 298 °C | – | –
Cc1ccn2cc(-c3cc4ccc(N5C[C@@H](C)N[C@@H](C)C5)cc4oc3=O)nc2n1 [Compound 225, 7-[(3R,5S)-3,5-dimethylpiperazin-1-yl]-3-(7-methylimidazo[1,2-a]pyrimidin-2-yl)-2H-chromen-2-one] | 0.3 to 1 µM | *** (fold increase between >1.35 and ≤1.5) | 246 to 252 °C | – | –
Cc1ccn2cc(-c3cc4ccc(N(C)CCN(C)C)cc4oc3=O)nc2n1 [Compound 226, 7-{[2-(dimethylamino)ethyl](methyl)amino}-3-(7-methylimidazo[1,2-a]pyrimidin-2-yl)-2H-chromen-2-one] | 3 to 30 µM | * (maximum fold increase of ≤1.2) | 188 to 191 °C | – | –
Cc1ccn2cc(-c3cc4ccc(N5CCCN(C)CC5)cc4oc3=O)nc2n1 [Compound 227, 7-(4-methyl-1,4-diazepan-1-yl)-3-(7-methylimidazo[1,2-a]pyrimidin-2-yl)-2H-chromen-2-one] | 0.1 to 0.3 µM | *** (fold increase between >1.35 and ≤1.5) | 232 to 236 °C | 3000 to 10000 nM | –
Cc1ccn2cc(-c3cc4ccc(N5CCN[C@H](C)C5)cc4oc3=O)nc2n1 [Compound 228, 3-(7-methylimidazo[1,2-a]pyrimidin-2-yl)-7-[(3R)-3-methylpiperazin-1-yl]-2H-chromen-2-one] | 0.1 to 0.3 µM | ** (fold increase between >1.2 and ≤1.35) | 297 to 300 °C | – | –
Cc1ccn2cc(-c3cc4ccc(N5CCN[C@@H](C)C5)cc4oc3=O)nc2n1 [Compound 229, 3-(7-methylimidazo[1,2-a]pyrimidin-2-yl)-7-[(3S)-3-methylpiperazin-1-yl]-2H-chromen-2-one] | 0.1 to 0.3 µM | *** (fold increase between >1.35 and ≤1.5) | 298 to 301 °C | – | –
Cc1ccn2cc(-c3cc4ccc(N5CCCNCC5)cc4oc3=O)nc2n1 [Compound 230, 7-(1,4-diazepan-1-yl)-3-(7-methylimidazo[1,2-a]pyrimidin-2-yl)-2H-chromen-2-one] | 0.3 to 1 µM | *** (fold increase between >1.35 and ≤1.5) | 286 to 288 °C | – | –
Cc1cn2cc(-c3cc4ccc(N5CCN[C@H](C)C5)cc4oc3=O)nc2s1 [Compound 231, 3-(2-methylimidazo[2,1-b][1,3]thiazol-6-yl)-7-[(3R)-3-methylpiperazin-1-yl]-2H-chromen-2-one] | 0.3 to 1 µM | ** (fold increase between >1.2 and ≤1.35) | 178 to 181 °C | 3000 to 10000 nM | –
Cc1cn2cc(-c3cc4ccc(N5CCN[C@@H](C)C5)cc4oc3=O)nc2s1 [Compound 232, 3-(2-methylimidazo[2,1-b][1,3]thiazol-6-yl)-7-[(3S)-3-methylpiperazin-1-yl]-2H-chromen-2-one] | 0.3 to 1 µM | * (maximum fold increase of ≤1.2) | 177 to 182 °C | – | –
Cc1cn2cc(-c3cc4ccc(N5CCCNCC5)cc4oc3=O)nc2s1 [Compound 233, 7-(1,4-diazepan-1-yl)-3-(2-methylimidazo[2,1-b][1,3]thiazol-6-yl)-2H-chromen-2-one] | 0.1 to 0.3 µM | *** (fold increase between >1.35 and ≤1.5) | 188 to 191 °C | – | –
COc1ccncc1-c1cc2ccc(N3CCNCC3)cc2oc1=O [Compound 234, 3-(4-methoxypyridin-3-yl)-7-(piperazin-1-yl)-2H-chromen-2-one] | 3 to 30 µM | * (maximum fold increase of ≤1.2) | 179 to 181 °C | – | –
O=c1oc2cc(N3CCNCC3)ccc2cc1-c1cnccc1Cl [Compound 235, 3-(4-chloropyridin-3-yl)-7-(piperazin-1-yl)-2H-chromen-2-one] | – | * (maximum fold increase of ≤1.2) | 175 to 177 °C | – | 1 to 3 µM
C[C@@H]1CN(c2ccc3cc(-c4nc(C(F)(F)F)cs4)c(=O)oc3c2)C[C@H](C)N1 [Compound 236, 7-[(3R,5S)-3,5-dimethylpiperazin-1-yl]-3-[4-(trifluoromethyl)-1,3-thiazol-2-yl]-2H-chromen-2-one] | 1 to 3 µM | * (maximum fold increase of ≤1.2) | 215 to 219 °C | – | –
